The record followed here is ChEMBL document CHEMBL4330132, “5-Keto-3-cyano-2,4-diaminothiophenes as selective maternal embryonic leucine zipper kinase inhibitors” (Bioorg Med Chem Lett, 2019).

Test [1] addresses Aurora kinase A (Homo sapiens) (UniProt O14965). Put plainly: Binding affinity to wild-type human partial length AURKA (E122 to K401 residues) expressed in mammalian expression system assessed as residual binding level at 1 uM by Kinomescan method relative to control.
Test [2] concerns the target Calcium/calmodulin-dependent protein kinase type II subunit gamma (Homo sapiens) (UniProt Q13555). Nature of the test: Binding affinity to wild-type human partial length CAMK2G (R9 to A303 residues) expressed in bacterial expression system assessed as residual binding level at 1 uM by Kinomescan method relative to control.
Test [3] has as its target Cyclin-dependent kinase 8 (Homo sapiens) (UniProt P49336). Nature of the test: Binding affinity to wild-type human partial length CDK8 (M1 to T360 residues) expressed in bacterial expression system assessed as residual binding level at 1 uM by Kinomescan method relative to control.
The target of test [4] is Dual specificity tyrosine-phosphorylation-regulated kinase 1B (Homo sapiens) (UniProt Q9Y463). Put plainly: Binding affinity to wild-type human full length DYRK1B (M1 to S629 residues) expressed in bacterial expression system assessed as residual binding level at 1 uM by Kinomescan method relative to control.
The target of test [5] is Ephrin type-A receptor 1 (Homo sapiens) (UniProt P21709). Put plainly: Binding affinity to wild-type human partial length EPHA1 (V588 to I913 residues) expressed in bacterial expression system assessed as residual binding level at 1 uM by Kinomescan method relative to control.
Test [6] has as its target Ephrin type-A receptor 2 (Homo sapiens) (UniProt P29317). Put plainly: Binding affinity to wild-type human partial length EPHA2 (T593 to V891 residues) expressed in bacterial expression system assessed as residual binding level at 1 uM by Kinomescan method relative to control.
In test [7] the target is Receptor-type tyrosine-protein kinase FLT3 (Homo sapiens) (UniProt P36888). Put plainly: Binding affinity to wild-type human partial length FLT3 (V592 to Y969 residues) expressed in bacterial expression system assessed as residual binding level at 1 uM by Kinomescan method relative to control.
The target of test [8] is Homeodomain-interacting protein kinase 1 (Homo sapiens) (UniProt Q86Z02). Put plainly: Binding affinity to wild-type human partial length HIPK1 (M146 to I555 residues) expressed in mammalian expression system assessed as residual binding level at 1 uM by Kinomescan method relative to control.
The target of test [9] is Serine/threonine-protein kinase ICK (Homo sapiens) (UniProt Q9UPZ9). Nature of the test: Binding affinity to wild-type human partial length ICK (M1 to P314 residues) expressed in mammalian expression system assessed as residual binding level at 1 uM by Kinomescan method relative to control.
Test [10] deals with MAP/microtubule affinity-regulating kinase 4 (Homo sapiens) (UniProt Q96L34). Nature of the test: Binding affinity to wild-type human partial length MARK4 (K29 to G340 residues) expressed in bacterial expression system assessed as residual binding level at 1 uM by Kinomescan method relative to control.
The target of test [11] is Maternal embryonic leucine zipper kinase (Homo sapiens, UniProt Q14680). Put plainly: Binding affinity to wild-type human full length MELK (M1 to V651 residues) expressed in bacterial expression system assessed as residual binding level at 1 uM by Kinomescan method relative to control.
The target of test [12] is Serine/threonine-protein kinase Nek11 (Homo sapiens) (UniProt Q8NG66). Put plainly: Binding affinity to wild-type human partial length NEK11 (M1 to E313 residues) expressed in mammalian expression system assessed as residual binding level at 1 uM by Kinomescan method relative to control.
Test [13] deals with Serine/threonine-protein kinase Nek3 (Homo sapiens) (UniProt P51956). Nature of the test: Binding affinity to wild-type human full length NEK3 (M1 to R506 residues) expressed in mammalian expression system assessed as residual binding level at 1 uM by Kinomescan method relative to control.
Test [14] has as its target Mitogen-activated protein kinase 11 (Homo sapiens) (UniProt Q15759). Put plainly: Binding affinity to wild-type human full length p38-beta (M1 to Q364 residues) expressed in bacterial expression system assessed as residual binding level at 1 uM by Kinomescan method relative to control.
Test [15] deals with Mitogen-activated protein kinase 12 (Homo sapiens) (UniProt P53778). Put plainly: Binding affinity to wild-type human full length p38-gamma (M1 to L367 residues) expressed in mammalian expression system assessed as residual binding level at 1 uM by Kinomescan method relative to control.
In test [16] the test system is Phosphatidylinositol 4,5-bisphosphate 3-kinase catalytic subunit alpha isoform (Homo sapiens), P42336 [Q546K]. Nature of the test: Binding affinity to human partial length PIK3CA Q546K mutant (R108 to N1068 residues) expressed in mammalian expression system assessed as residual binding level at 1 uM by Kinomescan method relative to control.
Test [17] concerns the target Serine/threonine-protein kinase PknB (Mycobacterium tuberculosis) (UniProt P9WI81). Put plainly: Binding affinity to wild-type Mycobacterium tuberculosis H37Rv partial length PKNB (M1 to G279 residues) expressed in mammalian expression system assessed as residual binding level at 1 uM by Kinomescan method relative to control.
In test [18] the target is Serine/threonine-protein kinase D2 (Homo sapiens) (UniProt Q9BZL6). Put plainly: Binding affinity to wild-type human partial length PRKD2 (A519 to E838 residues) expressed in bacterial expression system assessed as residual binding level at 1 uM by Kinomescan method relative to control.
In test [19] the test system is Proto-oncogene tyrosine-protein kinase receptor Ret (Homo sapiens), P07949 [M918T]. Put plainly: Binding affinity to human partial length RET M918T mutant (E713 to D1014 residues) expressed in bacterial expression system assessed as residual binding level at 1 uM by Kinomescan method relative to control.
For test [20], the target named is Ribosomal protein S6 kinase alpha-1 (Homo sapiens) (UniProt Q15418). Nature of the test: Binding affinity to wild-type human partial length N-terminal RSK1 Kinase domain 1 (M1 to E388 residues) expressed in bacterial expression system assessed as residual binding level at 1 uM by Kinomescan method relative to control.
In test [21] the target is Serine/threonine-protein kinase SBK1 (Homo sapiens) (UniProt Q52WX2). Put plainly: Binding affinity to wild-type human partial length SBK1 (P23 to P348 residues) expressed in mammalian expression system assessed as residual binding level at 1 uM by Kinomescan method relative to control.
Test [22] deals with NUAK family SNF1-like kinase 2 (Homo sapiens) (UniProt Q9H093). Nature of the test: Binding affinity to wild-type human partial length SNARK (P22 to A333 residues) expressed in mammalian expression system assessed as residual binding level at 1 uM by Kinomescan method relative to control.
For test [23], the target named is SRSF protein kinase 1 (Homo sapiens) (UniProt Q96SB4). Nature of the test: Binding affinity to wild-type human full length SRPK1 (M1 to S655 residues) expressed in bacterial expression system assessed as residual binding level at 1 uM by Kinomescan method relative to control.
For test [24], the target named is Mitogen-activated protein kinase kinase kinase 7 (Homo sapiens) (UniProt O43318). Nature of the test: Binding affinity to wild-type human partial length TAK1 (M1 to Q303 residues) expressed in mammalian expression system assessed as residual binding level at 1 uM by Kinomescan method relative to control.

Serine/threonine-protein kinase PknB (Mycobacterium tuberculosis), sequence (P9WI81 whole entry, the tested form may be a part): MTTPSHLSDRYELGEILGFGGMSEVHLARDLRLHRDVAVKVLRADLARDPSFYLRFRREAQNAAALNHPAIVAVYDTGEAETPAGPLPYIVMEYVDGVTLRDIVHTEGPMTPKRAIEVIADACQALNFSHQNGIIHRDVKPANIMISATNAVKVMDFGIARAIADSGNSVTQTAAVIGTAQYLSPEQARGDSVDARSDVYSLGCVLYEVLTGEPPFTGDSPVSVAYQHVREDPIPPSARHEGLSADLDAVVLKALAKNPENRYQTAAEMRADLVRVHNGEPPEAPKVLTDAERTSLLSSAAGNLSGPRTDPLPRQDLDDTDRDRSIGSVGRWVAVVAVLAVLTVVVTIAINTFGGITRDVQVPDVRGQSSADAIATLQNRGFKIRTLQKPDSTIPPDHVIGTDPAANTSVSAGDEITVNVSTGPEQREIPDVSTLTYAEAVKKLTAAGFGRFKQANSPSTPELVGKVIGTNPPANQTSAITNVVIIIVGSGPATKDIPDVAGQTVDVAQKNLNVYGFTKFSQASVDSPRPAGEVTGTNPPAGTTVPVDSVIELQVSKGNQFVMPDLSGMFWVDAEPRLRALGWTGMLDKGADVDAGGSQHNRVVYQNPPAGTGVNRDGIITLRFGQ
Serine/threonine-protein kinase ICK (Homo sapiens), sequence (Q9UPZ9 whole entry, the tested form may be a part): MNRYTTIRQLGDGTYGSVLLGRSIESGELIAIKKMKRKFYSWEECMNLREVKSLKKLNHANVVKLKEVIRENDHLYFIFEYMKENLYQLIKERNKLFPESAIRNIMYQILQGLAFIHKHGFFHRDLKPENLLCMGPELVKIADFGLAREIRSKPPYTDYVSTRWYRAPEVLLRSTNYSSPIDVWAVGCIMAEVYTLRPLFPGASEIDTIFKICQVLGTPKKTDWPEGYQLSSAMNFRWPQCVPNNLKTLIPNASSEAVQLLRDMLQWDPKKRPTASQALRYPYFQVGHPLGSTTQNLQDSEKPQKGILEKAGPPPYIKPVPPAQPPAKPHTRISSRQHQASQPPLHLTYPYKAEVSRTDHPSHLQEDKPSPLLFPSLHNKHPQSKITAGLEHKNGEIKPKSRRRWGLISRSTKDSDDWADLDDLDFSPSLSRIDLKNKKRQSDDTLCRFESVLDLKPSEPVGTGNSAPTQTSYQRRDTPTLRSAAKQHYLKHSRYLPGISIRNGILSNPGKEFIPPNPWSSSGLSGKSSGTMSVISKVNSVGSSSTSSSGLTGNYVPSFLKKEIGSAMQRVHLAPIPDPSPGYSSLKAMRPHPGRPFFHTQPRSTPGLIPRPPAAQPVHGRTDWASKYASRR
Homeodomain-interacting protein kinase 1 (Homo sapiens), sequence (Q86Z02 whole entry, looked up, the tested form may be a part): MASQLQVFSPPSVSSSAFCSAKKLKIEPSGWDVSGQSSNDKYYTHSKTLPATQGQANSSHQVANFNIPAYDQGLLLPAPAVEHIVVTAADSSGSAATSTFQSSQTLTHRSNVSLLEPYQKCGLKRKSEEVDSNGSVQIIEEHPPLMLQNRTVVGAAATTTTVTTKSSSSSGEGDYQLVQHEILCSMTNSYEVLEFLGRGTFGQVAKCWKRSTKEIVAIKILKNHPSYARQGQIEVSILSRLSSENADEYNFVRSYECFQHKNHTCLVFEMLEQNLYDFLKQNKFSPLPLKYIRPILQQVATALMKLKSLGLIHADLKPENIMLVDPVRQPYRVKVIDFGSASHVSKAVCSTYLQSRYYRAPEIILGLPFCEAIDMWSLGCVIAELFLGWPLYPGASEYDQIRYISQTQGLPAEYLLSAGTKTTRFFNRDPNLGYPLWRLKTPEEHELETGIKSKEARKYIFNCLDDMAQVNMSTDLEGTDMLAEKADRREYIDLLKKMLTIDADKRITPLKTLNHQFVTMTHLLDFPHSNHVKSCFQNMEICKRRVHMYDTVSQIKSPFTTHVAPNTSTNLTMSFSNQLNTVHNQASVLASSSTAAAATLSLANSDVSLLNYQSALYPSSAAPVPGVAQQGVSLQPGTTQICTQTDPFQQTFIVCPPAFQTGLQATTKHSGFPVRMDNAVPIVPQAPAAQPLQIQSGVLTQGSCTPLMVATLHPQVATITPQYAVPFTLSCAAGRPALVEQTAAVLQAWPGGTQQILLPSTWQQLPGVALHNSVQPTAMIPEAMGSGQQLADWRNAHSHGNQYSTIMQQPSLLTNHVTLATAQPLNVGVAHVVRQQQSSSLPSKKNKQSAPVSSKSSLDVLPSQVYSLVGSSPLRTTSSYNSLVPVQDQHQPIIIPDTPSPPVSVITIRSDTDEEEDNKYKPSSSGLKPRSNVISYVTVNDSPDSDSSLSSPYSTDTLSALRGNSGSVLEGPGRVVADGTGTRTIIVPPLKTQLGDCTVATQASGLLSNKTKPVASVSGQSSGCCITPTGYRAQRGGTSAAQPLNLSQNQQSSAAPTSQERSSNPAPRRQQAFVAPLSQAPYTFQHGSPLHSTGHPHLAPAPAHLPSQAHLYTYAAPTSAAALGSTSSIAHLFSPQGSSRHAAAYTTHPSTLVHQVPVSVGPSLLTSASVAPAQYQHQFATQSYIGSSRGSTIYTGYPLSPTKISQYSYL
Proto-oncogene tyrosine-protein kinase receptor Ret (Homo sapiens), P07949 [M918T], sequence (P07949 whole entry M918T, the tested form may be a part): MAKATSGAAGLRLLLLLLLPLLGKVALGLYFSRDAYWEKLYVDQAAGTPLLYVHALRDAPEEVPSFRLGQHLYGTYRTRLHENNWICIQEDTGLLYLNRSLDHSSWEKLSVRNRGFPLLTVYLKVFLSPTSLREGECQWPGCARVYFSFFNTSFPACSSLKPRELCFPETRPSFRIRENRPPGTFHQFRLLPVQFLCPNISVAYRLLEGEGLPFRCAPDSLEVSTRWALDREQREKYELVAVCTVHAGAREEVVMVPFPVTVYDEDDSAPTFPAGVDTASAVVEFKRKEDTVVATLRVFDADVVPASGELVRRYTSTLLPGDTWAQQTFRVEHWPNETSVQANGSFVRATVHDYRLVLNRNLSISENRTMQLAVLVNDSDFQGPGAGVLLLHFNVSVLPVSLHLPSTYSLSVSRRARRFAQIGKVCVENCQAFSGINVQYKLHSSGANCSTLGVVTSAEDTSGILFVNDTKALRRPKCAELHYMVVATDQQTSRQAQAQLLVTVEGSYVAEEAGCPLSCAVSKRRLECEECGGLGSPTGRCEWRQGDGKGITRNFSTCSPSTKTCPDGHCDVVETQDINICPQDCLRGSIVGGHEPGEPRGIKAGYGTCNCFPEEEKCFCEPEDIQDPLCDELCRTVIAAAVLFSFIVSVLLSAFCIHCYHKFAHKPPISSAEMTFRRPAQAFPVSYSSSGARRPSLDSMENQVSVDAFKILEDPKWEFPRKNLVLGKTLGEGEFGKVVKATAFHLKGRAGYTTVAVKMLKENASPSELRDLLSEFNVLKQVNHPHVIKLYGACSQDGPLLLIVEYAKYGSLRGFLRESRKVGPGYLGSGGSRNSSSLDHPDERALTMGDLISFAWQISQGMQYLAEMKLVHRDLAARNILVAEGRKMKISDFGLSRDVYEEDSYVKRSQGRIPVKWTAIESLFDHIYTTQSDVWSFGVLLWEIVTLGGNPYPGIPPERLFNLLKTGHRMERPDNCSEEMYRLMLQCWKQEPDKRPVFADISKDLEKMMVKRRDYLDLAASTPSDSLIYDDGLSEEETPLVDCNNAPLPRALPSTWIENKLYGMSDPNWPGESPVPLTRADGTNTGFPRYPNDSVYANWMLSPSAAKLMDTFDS
Aurora kinase A (Homo sapiens), sequence (O14965 whole entry, the tested form may be a part): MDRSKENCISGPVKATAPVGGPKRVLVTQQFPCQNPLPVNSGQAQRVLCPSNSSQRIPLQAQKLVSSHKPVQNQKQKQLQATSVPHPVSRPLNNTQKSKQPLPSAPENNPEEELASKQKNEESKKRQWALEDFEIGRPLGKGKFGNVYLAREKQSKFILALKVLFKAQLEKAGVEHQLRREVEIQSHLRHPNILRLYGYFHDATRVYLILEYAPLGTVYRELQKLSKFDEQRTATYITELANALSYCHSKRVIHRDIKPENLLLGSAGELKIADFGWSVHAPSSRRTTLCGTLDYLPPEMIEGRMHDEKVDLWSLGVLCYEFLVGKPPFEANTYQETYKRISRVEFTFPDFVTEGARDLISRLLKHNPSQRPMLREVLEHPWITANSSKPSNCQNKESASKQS
Cyclin-dependent kinase 8 (Homo sapiens), sequence (P49336 whole entry, the tested form may be a part): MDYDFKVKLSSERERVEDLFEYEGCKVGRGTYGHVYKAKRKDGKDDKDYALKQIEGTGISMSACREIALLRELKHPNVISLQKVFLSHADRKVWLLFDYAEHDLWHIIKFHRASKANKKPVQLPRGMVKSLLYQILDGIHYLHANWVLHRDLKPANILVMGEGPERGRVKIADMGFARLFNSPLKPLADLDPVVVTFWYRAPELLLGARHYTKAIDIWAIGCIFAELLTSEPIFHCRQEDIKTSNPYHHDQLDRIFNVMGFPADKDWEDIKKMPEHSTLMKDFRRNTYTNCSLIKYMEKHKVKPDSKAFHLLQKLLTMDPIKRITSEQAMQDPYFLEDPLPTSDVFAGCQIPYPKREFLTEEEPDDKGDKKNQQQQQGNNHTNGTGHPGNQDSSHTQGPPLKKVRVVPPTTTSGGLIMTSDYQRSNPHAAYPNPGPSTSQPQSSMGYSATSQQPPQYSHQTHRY
NUAK family SNF1-like kinase 2 (Homo sapiens), sequence (Q9H093 whole entry, the tested form may be a part): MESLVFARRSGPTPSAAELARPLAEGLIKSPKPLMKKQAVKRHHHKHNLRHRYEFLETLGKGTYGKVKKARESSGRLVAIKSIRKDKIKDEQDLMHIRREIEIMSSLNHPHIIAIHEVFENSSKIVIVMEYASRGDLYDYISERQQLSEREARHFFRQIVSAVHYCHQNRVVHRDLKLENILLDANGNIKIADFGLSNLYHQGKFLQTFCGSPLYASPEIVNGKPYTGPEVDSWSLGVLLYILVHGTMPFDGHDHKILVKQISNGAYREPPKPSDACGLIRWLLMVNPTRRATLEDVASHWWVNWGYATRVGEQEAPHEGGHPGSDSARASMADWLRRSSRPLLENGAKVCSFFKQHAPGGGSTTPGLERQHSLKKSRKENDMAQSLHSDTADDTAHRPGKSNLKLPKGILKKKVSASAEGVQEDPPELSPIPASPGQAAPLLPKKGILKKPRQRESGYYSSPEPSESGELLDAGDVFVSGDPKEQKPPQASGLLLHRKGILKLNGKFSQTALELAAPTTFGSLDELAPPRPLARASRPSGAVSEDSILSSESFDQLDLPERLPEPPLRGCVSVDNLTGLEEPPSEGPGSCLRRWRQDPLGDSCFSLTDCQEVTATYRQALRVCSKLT

Turning to `CC(C)Nc1sc(C(=O)c2ccc(Cl)s2)c(N)c1C#N`, the Activity is 100% in test [1]; 74% in [2]; 84% in test [3]; 64% in test [4]; 95% in test [5]; 100% in test [6]. For the same compound, the Activity in [7] was determined as 93%; in test [8] it was 100%; in test [9], 100%; in test [10], 65%; in [11], 14%; in [12] it was 97%. Besides, the Activity in test [13] is 100%; in [14], 83%; in [15], 100%; in test [16], 100%; in test [17], 95%; in test [18], 100%. For the same compound, the Activity was 86% in test [19]; 84% in [20]; 100% in test [21]; 100% in [22]; 100% in test [23]; 100% in test [24].
